Reference: PubChem BioAssay AID179 (DTP/NCI, 2004)
Calls of active or inactive are those of the source.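 Rule for the calls: active = compounds giving half or more protection of infected cells from virus-caused growth loss, again on retest; inactive = the rest.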

Test system: CEM cells HIV-1 protection, formazan growth assay
Assay: NCI AIDS Antiviral Assay
Conditions: for IC50: measured here: growth of uninfected CEM cells
Method in brief: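 Category rules: moderately active means at least 50% protection on retest, and confirmed active means 100% protection reproducibly. The underlying data came from a formazan growth assay in HIV-1-infected CEM cells.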

Compound	EC50	IC50	outcome
Cc1ccc(C(=C2Sc3ccccc3S2)C(=C2Sc3ccccc3S2)c2ccc(C)s2)s1	> 200 µM	> 200 µM	–
CCCOC(C)OCCC#CCC(C)OC(=O)CC(Cl)(Cl)Cl (stereo not given)	> 200 µM	> 200 µM	–
Oc1cc(O)cc(/C=C/c2ccc(O)c(O)c2)c1	–	–	inactive
O=C1C=C2CC3c4[nH]c5ccccc5c4CCN3CC2CC1 (stereo not given)	> 85.1 µM	43.7 µM	–
CC(C)=CCN1c2ccccc2[C@@]2(CC=C(C)C)CCN(C)[C@@H]12	> 200 µM	33.1 µM	–
CC1C2(C)OC(=N)C(C#N)(C(c3ccccc3)O2)C1(C#N)C#N (stereo not given)	> 200 µM	10.7 µM	–
O=C1NC(N2CCCCC2)=N/C1=C\c1ccc(Cl)cc1	> 200 µM	97.7 µM	–
CCOC(=O)/C=C/c1ccc([N+](=O)[O-])cc1	> 32.4 µM	> 32.4 µM	–
CCOC(=O)/C(Br)=C/SCCC(=O)O	> 891 µM	174 µM	–
C[C@]12CC[C@H]3[C@@H](CC=C4C[C@@H](O)CC[C@@]43C)[C@@H]1CC[C@@H]2c1cnc[nH]1	> 200 µM	117 µM	–
CC(C)CC(NC(=O)C(CI)Cc1ccccc1)C(=O)Nc1ccccc1 (stereo not given)	> 100 µM	> 100 µM	–
c1ccc([P+](c2ccccc2)(c2ccccc2)C2c3ccccc3-c3ccccc32)cc1	> 200 µM	10.7 µM	–
CC(=O)CCC(NC(C)=O)(C(=O)O)C(=O)O	> 200 µM	> 200 µM	–
CN/C=C(/c1ccc(OC)cc1)C(O)c1ccc(OC)c(OC)c1 (stereo not given)	> 759 µM	282 µM	–
CCOC(=O)C12CC1(C(=O)OCC)C1CCC2C1 (stereo not given)	> 200 µM	> 200 µM	–
c1ccc(N2CC3CSc4c(ccc5ccccc45)C3=N2)cc1 (stereo not given)	> 200 µM	162 µM	–
CCN(CC)CCOc1ccc2c(c1O)C(=O)c1ccccc1C2=O	> 74.1 µM	3.98 µM	–
Nc1nc(-c2ccco2)cc(-c2ccc(CO)o2)n1	> 195 µM	107 µM	–
C/C(=N\NC(=O)c1ccncc1)c1cccc(F)c1	> 195 µM	> 195 µM	–
NC(Cc1ccccc1)C(=O)NC(Cc1ccccc1)NC(=O)C(Cc1c[nH]c2ccccc12)C(=O)O (stereo not given)	–	–	inactive
Cc1[nH]nc2c1NC(=O)OCC2	> 550 µM	> 550 µM	–
CSC(=S)NNC(=O)c1ccncc1	> 12 µM	> 12 µM	–
CC(NC1=NCCO1)c1cccs1 (stereo not given)	> 200 µM	138 µM	–

Compound	EC50	IC50	outcome
COC(=O)[C@H](Cc1ccccc1)NC(=O)N(CCNC(=O)OC(C)(C)C)c1ccccc1	> 200 µM	102 µM	–
CNn1c(-c2ccc(C)cc2)n[nH]c1=O	49 µM	56.2 µM	–
COC(=O)C1=C(CS(=O)c2ccc([N+](=O)[O-])cc2[N+](=O)[O-])ON(C)C1c1ccccc1 (stereo not given)	–	–	inactive
O=C(O)CN(CC(=O)O)C1CCCCC1N(CC(=O)O)CC(=O)NCCN=C=S (stereo not given)	> 200 µM	> 200 µM	–
CCOP(=O)(OCC)/C(C#N)=C/c1ccc(F)cc1	> 891 µM	> 891 µM	–
O=[N+]([O-])c1cc([As](=O)(O)O)ccc1S(=O)(=O)O	> 200 µM	> 200 µM	–
COC(=O)C(=O)OC1(C(C)=O)CC2(c3ccccc3)OC1(c1ccccc1)c1ccccc12 (stereo not given)	–	–	inactive
CCCCCCCCCCCCCCCC=C(c1cc(Cl)c(O)c(C(=O)O)c1)c1cc(Cl)c(O)c(C(=O)O)c1	20.9 µM	34.7 µM	–
O=C1CC(c2c(-c3ccccc3)[nH]c3ccccc23)C(=O)N1c1ccccc1 (stereo not given)	–	–	inactive
S=C1C(=Nc2ccccc2)N(c2ccccc2)/C(=N\c2cccc[n+]2Cc2ccccc2)N1c1ccccc1	15.5 µM	27.5 µM	–
COc1nc(OC)n(C)c(=O)c1OP(=O)(OC)OC	> 200 µM	> 200 µM	–
COC(=O)C1C2C/C(=N\O)C1C2 (stereo not given)	> 501 µM	> 501 µM	–
Cc1ccc(/C=C/C(=O)C(C)(C)CN2CCCCC2)cc1	> 27.5 µM	> 27.5 µM	–
CCC/C(Cl)=N\OC(=O)Nc1ccc(F)cc1	> 20 µM	2.82 µM	–
CCCCCCCCCCCCCCCCCC(=O)OCC(C[As](=O)(O)O)OC(=O)CCCCCCCCCCCCCCCCC (stereo not given)	> 17.8 µM	> 17.8 µM	–
CN(C)CCNC(=O)Cn1ccc(=O)c2ccc([N+](=O)[O-])cc21	> 200 µM	> 200 µM	–
CCOC(=O)Cc1nnc2n(-c3ccccc3)c(=O)c3ccccc3n12	> 100 µM	> 100 µM	–
N#Cc1n[nH]n(-c2ccccc2)c1=O	> 200 µM	> 200 µM	–
O=[N+]([O-])c1cccc2nc3ccccc3c(NCCCN3CCCCC3)c12	> 2 µM	0.0126 µM	–
CS(=O)(=O)Nc1ccc2oc(=O)c3ccccc3c2c1	> 200 µM	24 µM	–
Cc1ccc(C(c2c(O)c3ccccc3n(-c3ccccc3)c2=O)c2c(O)c3ccccc3n(-c3ccccc3)c2=O)cc1	> 12.6 µM	> 12.6 µM	–
O=S(=O)(F)c1cccc(Cl)c1C[P+](c1ccccc1)(c1ccccc1)c1ccccc1	> 200 µM	25.7 µM	–
COc1ccc(/C=C2\C(=O)N(C(=O)c3ccc(NC(C)=O)cc3)N=C2C)cc1	> 19.1 µM	> 19.1 µM	–

Compound	EC50	IC50	outcome
COc1cc(C2(C#N)CCN(C)CC2)cc(OC)c1OC	> 871 µM	437 µM	–
C=Cc1ccccc1N=NC(C(=O)OC)=P(c1ccccc1)(c1ccccc1)c1ccccc1	> 1.17 µM	> 1.17 µM	–
O=S(=O)(/C=C/c1ccc(F)cc1)Cc1ccc(CS(=O)(=O)/C=C/c2ccc(F)cc2)cc1	> 27.5 µM	> 27.5 µM	–
CC(C)(C)c1cc(C=C(C#N)C#N)cc(C(C)(C)C)c1O	> 20 µM	0.372 µM	–
CN(C)c1ccc(/C=C(/NC(=O)c2ccccc2)c2nc3ccc(Cl)cc3[nH]2)cc1	> 17.4 µM	> 17.4 µM	–
O=c1cc(-c2ccccc2)oc2ccc(-c3ccc4oc(-c5ccccc5)cc(=O)c4c3)cc12	> 200 µM	27.5 µM	–
Cc1ccc(C)c(COCCOCn2cc(N3CCOCC3)c(=O)[nH]c2=O)c1	> 200 µM	> 200 µM	–
Cc1ccc(C)c(C(=O)c2ccccc2C(=O)O)c1	> 200 µM	> 200 µM	–
Cc1ccc(NC(=O)c2ccccc2)c(=O)o1	> 200 µM	> 200 µM	–
CN(/N=C/c1cccc2cccnc12)c1ccc([N+](=O)[O-])cc1[N+](=O)[O-]	–	–	inactive
COC(=O)c1ccc(CS(=O)(=O)c2ccccc2)cc1	> 12.9 µM	> 12.9 µM	–
CC(C)(c1cn(Cc2ccccc2)c2ccccc12)c1cn(Cc2ccccc2)c2ccccc12	–	–	inactive
COc1cc2c[n+]3ccc4cc(OC)c(OC)cc4c3cc2cc1O	–	–	inactive
O=C(Nc1ccc(Cl)cc1Cl)C(=O)Nn1c(=S)[nH]c2ccccc2c1=O	–	–	inactive
CC(C)N(C(=O)c1ccc([N+](=O)[O-])cc1)C(C)C	> 200 µM	> 200 µM	–
CCOC(=O)Oc1cc2c(c(OC)c1OC)-c1ccc(OC)c(=O)cc1C(NC(C)=O)CC2 (stereo not given)	> 2 µM	0.00525 µM	–
CN(C)CCN(C)CCC(=O)/C=C/c1ccccc1	–	–	inactive
N=C1C(=N)c2ccccc2-c2ccccc21.[Cl-].[Rh+3].c1cnc2c(c1)ccc1cccnc12.c1cnc2c(c1)ccc1cccnc12	–	–	inactive
COc1cc2cccc(N=Cc3ccccc3Cl)c2cc1OC	> 30.9 µM	> 30.9 µM	–
COC(=O)C1C=CN(N(C)C)C2=C1C(=O)c1c(O)cccc1C2=O (stereo not given)	> 200 µM	1.74 µM	–
CCOC(=O)C1(C(=O)OCC)CC1(C(=O)OCC)C(=O)OCC	–	–	inactive
NC1=Nc2cc(Cl)ccc2Sc2nc3ccccc3n21	> 200 µM	20.9 µM	–
CCc1cccc(CC)c1NC(=S)N/C=C(\C#N)C(=O)c1ccc2ccccc2c1	–	–	inactive

Compound	EC50	IC50	outcome
c1ccc2c3c([nH]c2c1)C1(CCCCC1)c1c([nH]c2ccccc12)C31CCCCC1	> 6.92 µM	> 6.92 µM	–
CN1CCC(O)C(CNC23CC4CC(CC(C4)C2)C3)C1 (stereo not given)	97.7 µM	178 µM	–
CC1NC(=O)c2cc(=O)[nH]c(O)c21 (stereo not given)	> 513 µM	398 µM	–
CCOC(=O)c1cc(NC(=O)N(CCC#N)CCN(C(=O)N[C@@H](Cc2ccccc2)C(=O)N[C@@H](CC(C)C)C(=O)NC)c2ccccc2)ccc1OC	> 200 µM	29.5 µM	–
O=C1CCCCC/C1=C\c1ccc([N+](=O)[O-])cc1	> 200 µM	25.7 µM	–
CC1=C(C(=O)Nc2c(C)cccc2C)C(c2ccccc2Cl)C(C(=O)Nc2c(C)cccc2C)=C(C)N1	> 355 µM	324 µM	–
OCC1C(OCc2ccccc2)C(OCc2ccccc2)C(OCc2ccccc2)CN1Cc1ccccc1 (stereo not given)	–	–	inactive
O=C1Nc2cccc3c2N(CCC3)C2=C1CCC2	> 200 µM	> 200 µM	–
COc1ccc(/C=C/C(=O)c2nc3ccccc3n2C)cc1	> 200 µM	26.9 µM	–
C/C(CCN(C)C)=N/O	–	–	inactive
O=C1CCC(N2C(=O)c3ccccc3C2=O)C(=O)N1 (stereo not given)	–	–	inactive
COC(=O)CNS(=O)(=O)c1ccc(-c2c3nc(c(-c4ccc(S(=O)(=O)NCC(=O)OC)cc4)c4ccc([nH]4)c(-c4ccc(S(=O)(=O)NCC(=O)OC)cc4)c4nc(c(-c5ccc(S(=O)(=O)NCC(=O)OC)cc5)c5ccc2[nH]5)C=C4)C=C3)cc1	> 100 µM	> 100 µM	–
CC(C)(C)OC(=O)NCC(CNC(=O)OC(C)(C)C)C(N)=O	> 407 µM	> 407 µM	–
Cc1cnnc2c3ccccc3nn12	> 123 µM	> 123 µM	–
CC1=CCC2CC1NC(=O)CCOCCC(=O)NC2(C)C (stereo not given)	> 100 µM	> 100 µM	–
COc1cccc(/C=N/[N-]C(N)=O)c1[O-].[Cu+2].[OH3+].c1cnc2c(c1)ccc1cccnc12	> 39.8 µM	16.2 µM	–
O=C1C2C(C(=O)N1c1ccccc1)C1(c3ccccc3)SC2(c2ccccc2)c2c(-c3ccccc3)sc(-c3ccccc3)c21 (stereo not given)	–	–	inactive
C[N+](C)(C)CC(=O)N/N=C(/C(=O)Nc1ccc(Br)cc1)C1C(=O)NC(=O)NC1=O	> 200 µM	> 200 µM	–
CC(C)(CO)CNc1cc(Cl)nc(N)n1	> 200 µM	> 200 µM	–
CO/C=C(\Br)c1ccc2c(c1)OCO2	–	–	inactive
